{"source": "paper PMC8151276", "about": "“An Integrated Approach toward NanoBRET Tracers for Analysis of GPCR Ligand Engagement” (Molecules, 2021)", "format_in_all_cases": "binding", "key": {"P2RY14": {"biological_target": "T1, P2RY14 (Homo sapiens, UniProt Q15391)", "T1 construct": "purchased Promega (in-house HiBiT-GPCR construct library, NanoBRET)", "T1 sequence (Q15391 1-338)": "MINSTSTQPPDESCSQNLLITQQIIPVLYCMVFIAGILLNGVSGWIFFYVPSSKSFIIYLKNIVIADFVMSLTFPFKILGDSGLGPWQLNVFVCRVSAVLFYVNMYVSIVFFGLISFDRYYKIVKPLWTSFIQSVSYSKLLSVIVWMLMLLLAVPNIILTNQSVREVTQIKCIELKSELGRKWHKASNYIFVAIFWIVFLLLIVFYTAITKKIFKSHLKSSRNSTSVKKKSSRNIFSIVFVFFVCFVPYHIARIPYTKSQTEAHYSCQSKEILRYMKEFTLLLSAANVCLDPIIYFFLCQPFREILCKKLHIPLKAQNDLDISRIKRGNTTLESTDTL", "assay": "NanoBRET screen HiBiT-P2RY14 in HEK293", "method": "(§1) Each tracer candidate was screened across the entire library of HiBiT-GPCR constructs using NanoBRET as the detection modality. As depicted in Figure 4A, the specificity of interactions was evaluated through decrease in BRET due to competitive displacement of a bound tracer by excess parental compound. Each tracer was analyzed for binding to each HiBiT-GPCR fusion in the absence and in the presence of competing parental compound. Briefly, HEK293 cells were transfected with HiBiT-GPCR constructs diluted into promoterless DNA to reduce expression and maximize translocation to the cell surface. Each tracer candidate was then screened at concentrations of 1 μM and 0.1 μM across cells expressing these fusions. Cells were treated for 1.5 h with tracer either alone or in the presence of 20 μM competing parental compound (i.e., control). BRET was measured upon addition of purified LgBiT and subsequent complementation with HiBiT genetically fused to a GPCR. The specificity of interactions was assessed through a decrease in BRET signal due to competitive displacement of the bound tracer. To further gauge the robustness of these interactions, the fold response over the control (i.e., BRETtracer/BRETcontrol) was calculated. We chose a 1.5-fold response, which translates to ≥7-fold signal over noise as the minimal threshold required to score an interaction as positive. […]. Below we highlight the screening results obtained for our exemplary fluorescent tracers based on Clozapine, Amitriptyline and AZD1283.\n(§2) HiBiT-GPCR DNA constructs were diluted in 10 mM Tris pH 8 to a final concentration of 0.01 μg/μL, arrayed in 96-well plates and stored at −20 °C. For transfection, HEK293 cells were suspended in Opti-MEM (without phenol red) supplemented with 2% fetal bovine serum (Seradigm) and 100 units/mL penicillin–streptomycin (Gibco) at a final concentration of 220,000 cells/mL and dispensed into white 96-well plates at 90 μL/well. Subsequent transfections and screens were carried using an Agilent Bravo Automated Liquid Handling Platform. First, the 96-well HiBiT DNA arrays were diluted 25-fold in Opti-MEM (without serum or phenol red) to a final concentration of 0.0004 μg/μL and 20 μL of the diluted DNAs were transferred into new 96-well plates. Next, promoterless carrier DNA (1 μg/μL) was diluted 25-fold (0.04 μg/μL) and then dispensed into the diluted arrays at 20 μL/well. Following brief mixing, Viafect transfection reagent (Promega) diluted 16-fold into Opti-MEM was dispensed into the plates at 40 μL/well. After mixing by pipetting, plates were incubated for 10 min on the pipetting station deck. The DNA-transfection reagent complexes were then added to plates containing cells. To facilitate the screen, 10 μL of DNA-transfection reagent complexes were added in duplicates to the top 4 and bottom 4 rows, resulting in two identical 48-well arrays per plate. Plates with transfected cells were incubated for 18–20 h at 37 °C/5% CO2. A screen of each tracer across the entire library using two different concentrations requires duplicate plates of transfected cells. Depending on the number of tracers being screened, transfections can be scaled up using the same ratios. The next day, for each tracer, four 20× screening solutions in tracer dilution buffer (Promega) were prepared: two duplicates at final concentration of 20 μM and two duplicates at a final concentration of 2 μM. A competing unmodified compound was added to one of each duplicate at a final concentration of 400 μM. The four resulting solutions were diluted 4-fold in Opti-MEM without serum or phenol red to generate 5× solutions (5 µM and 0.5 µM tracer +/− 100 μM competing compound). To screen the library, a BioTek MultiFlo FX liquid dispenser was used to dispense 22.5 µL of tracer solution to the top 4 rows and 22.5 µL tracer + competing compound solution to the 4 bottom rows. Plates were briefly mixed on an orbital shaker and incubated for 1.5 h at room temperature. […]"}, "MCHR1": {"biological_target": "T2, MCHR1 (Homo sapiens, UniProt Q99705)", "T2 construct": "purchased Promega (in-house HiBiT-GPCR construct library, NanoBRET)", "T2 sequence (Q99705 whole entry)": "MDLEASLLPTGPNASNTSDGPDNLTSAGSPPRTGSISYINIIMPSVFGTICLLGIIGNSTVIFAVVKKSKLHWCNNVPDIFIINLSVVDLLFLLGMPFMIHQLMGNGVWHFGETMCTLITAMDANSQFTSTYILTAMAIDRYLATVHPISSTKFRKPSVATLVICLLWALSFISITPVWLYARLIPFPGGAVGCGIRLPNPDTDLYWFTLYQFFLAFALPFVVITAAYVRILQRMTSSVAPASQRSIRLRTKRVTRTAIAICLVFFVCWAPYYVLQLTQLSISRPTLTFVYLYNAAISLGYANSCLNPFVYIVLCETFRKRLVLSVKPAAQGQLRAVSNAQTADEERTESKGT", "assay": "NanoBRET screen HiBiT-MCHR1 in HEK293", "method": "as §1, §2"}, "NPBWR1": {"biological_target": "T3, NPBWR1 (Homo sapiens, UniProt P48145)", "T3 construct": "purchased Promega (in-house HiBiT-GPCR construct library, NanoBRET)", "T3 sequence (P48145 1-328)": "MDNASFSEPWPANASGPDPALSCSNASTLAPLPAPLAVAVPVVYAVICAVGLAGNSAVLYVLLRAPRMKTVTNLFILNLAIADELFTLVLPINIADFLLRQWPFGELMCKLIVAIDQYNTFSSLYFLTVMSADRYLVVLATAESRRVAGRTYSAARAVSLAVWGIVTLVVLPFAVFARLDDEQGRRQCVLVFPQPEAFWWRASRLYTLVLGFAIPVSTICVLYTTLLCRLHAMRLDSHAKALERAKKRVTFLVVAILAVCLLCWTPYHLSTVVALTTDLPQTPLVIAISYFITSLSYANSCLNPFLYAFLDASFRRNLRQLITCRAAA", "assay": "NanoBRET screen HiBiT-NPBWR1 in HEK293", "method": "as §1, §2"}, "[1]": {"conditions": "tracer at 0.1μM, listed as amitriptyline-b-2-NB590"}, "[2]": {"conditions": "tracer at 1μM, listed as amitriptyline-b-2-NB590"}}, "data": [{"smiles": "CCOC(=O)c1cc(C#N)c(N2CCC(C(=O)NS(=O)(=O)Cc3ccccc3/C=C/C(=O)NCCNC(=O)CCc3ccc4n3[B-](F)(F)[N+]3=C(c5ccc[nH]5)C=CC3=C4)CC2)nc1C", "note": "[AZD1283-1-NB590]", "values": [{"measurement": "NanoBRET Fold Response", "setting": "P2RY14; P2RY14, 0.1μM", "value": 1.14}, {"measurement": "NanoBRET Fold Response", "setting": "P2RY14; P2RY14, 1μM", "value": 1.18}, {"measurement": "NanoBRET Fold Response", "setting": "MCHR1; MCHR1, 0.1μM", "value": 1.00}, {"measurement": "NanoBRET Fold Response", "setting": "MCHR1; MCHR1, 1μM", "value": 1.08}, {"measurement": "NanoBRET Fold Response", "setting": "NPBWR1; NPBWR1, 0.1μM", "value": 1.02}, {"measurement": "NanoBRET Fold Response", "setting": "NPBWR1; NPBWR1, 1μM", "value": 0.98}]}, {"smiles": "N#CN=C(NCCCOc1cccc(CN2CCCCC2)c1)NCCNC(=O)CCOCCOCCOCCOCCNC(=O)CCc1ccc2n1[B-](F)(F)[N+]1=C(c3ccc[nH]3)C=CC1=C2", "note": "[Aminopotentidine-2-NB590]", "values": [{"measurement": "NanoBRET Fold Response", "setting": "P2RY14; P2RY14, tracer 0.1μM", "value": 0.98}, {"measurement": "NanoBRET Fold Response", "setting": "P2RY14; P2RY14, tracer 1μM", "value": 0.91}, {"measurement": "NanoBRET Fold Response", "setting": "MCHR1; MCHR1, tracer 0.1μM", "value": 0.99}, {"measurement": "NanoBRET Fold Response", "setting": "MCHR1; MCHR1, tracer 1μM", "value": 0.95}, {"measurement": "NanoBRET Fold Response", "setting": "NPBWR1; NPBWR1, tracer 0.1μM", "value": 0.94}, {"measurement": "NanoBRET Fold Response", "setting": "NPBWR1; NPBWR1, tracer 1μM", "value": 0.95}]}, {"smiles": "CN(C)CCC=C1c2ccccc2CCc2ccc(C(=O)NCCNC(=O)CCOCCOCCOCCOCCNC(=O)CCc3ccc4n3[B-](F)(F)[N+]3=C(c5ccc[nH]5)C=CC3=C4)cc21", "note": "[Amitriptyline-a-2-NB590]", "values": [{"measurement": "NanoBRET Fold Response", "setting": "P2RY14; tracer at 1μM", "value": 1.09}, {"measurement": "NanoBRET Fold Response", "setting": "MCHR1; tracer at 0.1μM", "value": 1.01}, {"measurement": "NanoBRET Fold Response", "setting": "MCHR1; tracer at 1μM", "value": 1.09}]}, {"smiles": "CN(C)CCC=C1c2ccccc2CCc2ccc(C(=O)NCCNC(=O)CCOCCOCCOCCOCCNC(=O)CCc3ccc4n3[B-](F)(F)[N+]3=C(c5ccc[nH]5)C=CC3=C4)cc21", "note": "[Amitriptyline-b-2-NB590]", "values": [{"measurement": "NanoBRET Fold Response", "setting": "P2RY14; [1]", "value": 1.12}, {"measurement": "NanoBRET Fold Response", "setting": "P2RY14; [2]", "value": 0.77}, {"measurement": "NanoBRET Fold Response", "setting": "MCHR1; [1]", "value": 0.79}, {"measurement": "NanoBRET Fold Response", "setting": "MCHR1; [2]", "value": 1.01}, {"measurement": "NanoBRET Fold Response", "setting": "NPBWR1; tracer at 0.1μM", "value": 1.04}, {"measurement": "NanoBRET Fold Response", "setting": "NPBWR1; tracer at 1μM", "value": 1.03}]}, {"smiles": "CN(CCC=C1c2ccccc2CCc2ccccc21)C(=O)CCOCCOCCOCCOCCNC(=O)CCc1ccc2n1[B-](F)(F)[N+]1=C(c3ccc[nH]3)C=CC1=C2", "note": "[Amitriptyline-e-2-NB590]", "values": [{"measurement": "NanoBRET Fold Response", "setting": "P2RY14; tracer at 1μM", "value": 1.03}]}, {"smiles": "COc1ccc2c(n1)c(CCNC(C)=O)cn2CCNC(=O)CCc1ccc2n1[B-](F)(F)[N+]1=C(c3ccc[nH]3)C=CC1=C2", "note": "[Azamelatonin-1-NB590]", "values": [{"measurement": "NanoBRET Fold Response", "setting": "P2RY14; 0.1μM tracer", "value": 0.98}, {"measurement": "NanoBRET Fold Response", "setting": "P2RY14; 1μM tracer", "value": 0.98}, {"measurement": "NanoBRET Fold Response", "setting": "MCHR1; 0.1μM tracer", "value": 0.96}, {"measurement": "NanoBRET Fold Response", "setting": "MCHR1; 1μM tracer", "value": 0.84}, {"measurement": "NanoBRET Fold Response", "setting": "NPBWR1; 0.1μM tracer", "value": 0.88}, {"measurement": "NanoBRET Fold Response", "setting": "NPBWR1; 1μM tracer", "value": 0.84}]}, {"smiles": "COc1ccc2[nH]c(-c3ccc(CNC(=O)CCOCCOCCOCCOCCNC(=O)CCc4ccc5n4[B-](F)(F)[N+]4=C(c6ccc[nH]6)C=CC4=C5)cc3)c(CCNC(C)=O)c2n1", "note": "[AzomelatoninICO9-2-NB590]", "values": [{"measurement": "NanoBRET Fold Response", "setting": "P2RY14; 0.1μM tracer", "value": 1.21}, {"measurement": "NanoBRET Fold Response", "setting": "P2RY14; 1μM tracer", "value": 1.13}, {"measurement": "NanoBRET Fold Response", "setting": "MCHR1; 0.1μM tracer", "value": 1.38}, {"measurement": "NanoBRET Fold Response", "setting": "MCHR1; 1μM tracer", "value": 0.88}, {"measurement": "NanoBRET Fold Response", "setting": "NPBWR1; 0.1μM tracer", "value": 0.87}, {"measurement": "NanoBRET Fold Response", "setting": "NPBWR1; 1μM tracer", "value": 1.04}]}]}
